Assay results: patent publication US11040031B2, “Pyrazole derivatives as MALT1 inhibitors” (Janssen Pharmaceutica NV, priority 2018, dated 2021)
Read-outs that look alike come from different tables or passages of the source.

Key:
[1] = test system: OCI-Ly3 ABC-DLBCL cell line; assay: 4-day proliferation assay OCI-Ly3; assay type: cell-based; settings: Homo sapiens, read-out: Anti-proliferation: OCI-LY-3 IC50
Protocol: To assess anti-proliferative effects, MALT1 inhibitor test compounds were tested in 4-day proliferation assays using three different DLBCL cell lines.
Cells should be kept between 0.5-2.5 million cells per mL during culturing and cells should be supplemented every 2-3 days with fresh 50 μM beta-mercaptoenthanol. No beta-mercaptoethanol is used during the proliferation assay. OCI-Ly7 cells were propagated in IMDM (ThermoFisher) supplemented with 10% fetal bovine serum (HyClone), 2 mM L-glutamine (Sigma Aldrich) and 50 μg/mL Gentamycin. Cell passage numbers should not exceed 30.
10,000 TMD8, 10,000 OCI-Ly3 or 2,000 OCI-Ly7 cells were seeded in 100 μL media per well and incubated for 4 days at 37° C. and 5% CO2. Cell plating numbers were chosen based on growth curves to ensure linear cell growth. After 4 days of incubation 50 μl CellTiterGLO reagent (Promega) were added to each well and luminescence was measured on the Envision after 10 min of incubation at room temperature.

[2] = test system: Secretion of IL6 by TMD8 ABC-DLBCL cells; assay: Human IL6 Mesoscale assay (TMD-8); assay type: cell-based; settings: read-out: Human IL6 Mesoscale assay (TMD-8)
Protocol: (§1) NFKB signaling regulates the secretion of multiple cytokines, including IL6 and IL10. Secretion of the cytokines IL6 and IL10 by TMD8 or OCI-LY3 ABC-DLBCL cells was measured using a mesoscale assay.
(§2) Cell passage number should not exceed 30. Cells should be kept between 0.5-2.5 million cells per mL during culturing and cells should be supplemented every 2-3 days with fresh 50 µM beta-mercaptoenthanol. No beta-mercaptoethanol was used during the mesoscale assay.
(§3) DMSO control wells were used to determine the maximum signal (High Control (HC)). […] Compounds and cells were incubated for 24 h at 37° C. and 5% CO2 (assay volume is 150 μL). After 24 h of incubation 50 μL of the supernatant was transferred to a MSD plate (V-Plex Proinflammation Panel 1 (human) kit, Mesoscale (MSD)) and incubated for 2 h with vigorous shaking (600 rpm) at room temperature. Following incubation, plates were washed 3× with PBS+0.05% Tween-20 and 25 μL detection antibody solution (IL6 & IL10 antibodies in diluent 3 (MSD)) was added per well followed by 2 h of incubation with vigorous shaking (600 rpm) at room temperature. After 3× washes with PBS+0.05% Tween-20, plates were incubated with 150 μL 2× Read Buffer T and read on SECTOR imager.

[3] = test system: Secretion of IL10 by TMD8 ABC-DLBCL cells; assay: Human IL10 Mesoscale assay (TMD-8); assay type: cell-based; settings: read-out: Human IL10 Mesoscale assay (TMD-8)
Protocol: as §1, §2, §3

[4] = target: T1, full-length MALT1 protein (Strep-MALT1(1-824)-His) (Homo sapiens, UniProt Q9UDY8); assay: biochemical;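 further: fluorogenic LRSR-AMC substrate cleavage by MALT1, 50 min compound preincubation then 4 h reaction at RT, 11-point dilution from 30 µM, scaled between enzyme-free and untreated enzyme controls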
T1 sequence (Q9UDY8 1-824): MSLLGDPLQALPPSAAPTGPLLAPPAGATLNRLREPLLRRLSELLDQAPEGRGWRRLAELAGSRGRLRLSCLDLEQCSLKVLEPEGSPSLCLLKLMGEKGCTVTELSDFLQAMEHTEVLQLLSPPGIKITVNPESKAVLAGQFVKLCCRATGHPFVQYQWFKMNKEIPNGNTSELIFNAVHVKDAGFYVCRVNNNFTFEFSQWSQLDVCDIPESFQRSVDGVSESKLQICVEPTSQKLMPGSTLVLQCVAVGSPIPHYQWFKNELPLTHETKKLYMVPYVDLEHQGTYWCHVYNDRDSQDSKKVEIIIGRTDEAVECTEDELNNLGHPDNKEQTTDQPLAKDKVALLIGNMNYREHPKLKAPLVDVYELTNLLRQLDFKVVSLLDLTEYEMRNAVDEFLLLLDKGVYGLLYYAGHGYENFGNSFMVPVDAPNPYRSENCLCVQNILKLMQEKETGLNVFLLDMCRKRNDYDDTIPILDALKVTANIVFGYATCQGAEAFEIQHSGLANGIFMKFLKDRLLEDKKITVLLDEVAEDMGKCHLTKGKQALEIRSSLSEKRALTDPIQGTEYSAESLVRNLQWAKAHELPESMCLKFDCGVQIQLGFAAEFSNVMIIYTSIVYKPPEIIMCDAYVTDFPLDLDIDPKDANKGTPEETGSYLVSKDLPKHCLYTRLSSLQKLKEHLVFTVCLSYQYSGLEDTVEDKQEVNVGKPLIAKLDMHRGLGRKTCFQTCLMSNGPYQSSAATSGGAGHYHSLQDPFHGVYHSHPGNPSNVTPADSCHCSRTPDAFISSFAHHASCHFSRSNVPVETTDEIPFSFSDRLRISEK

[5] = test system: Secretion of IL6 by OCI-LY3 ABC-DLBCL cells; assay: Human IL6 Mesoscale assay (OCI-LY3); assay type: cell-based; settings: read-out: Human IL6 Mesoscale assay (OCI-LY3)
Procedure, shortened: (§4)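 TMD8 or OCI-LY3 ABC-DLBCL cells incubated with compound 24 h at 37° C without beta-mercaptoethanol. Secreted IL6 and IL10 in supernatant quantified by MSD electrochemiluminescence immunoassay; DMSO wells define maximum signal.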

[6] = test system: Secretion of IL10 by OCI-LY3 ABC-DLBCL cells; assay: Human IL10 Mesoscale assay (OCI-LY3); assay type: cell-based; settings: read-out: Human IL10 Mesoscale assay (OCI-LY3)
Procedure, shortened: as §4

[7] = 96 h, 10,000 OCI-Ly3 cells per well, 4 days, CellTiterGLO
[8] = TMD8 cells, 24 h incubation, supernatant, MSD V-Plex
[9] = OCI-LY3 cells, 24 h incubation, supernatant, MSD V-Plex

| Compound | IC50 [1, 7] [nM] | IC50 [2, 8] [nM] | IC50 [3, 8] [nM] | IC50 [4] [nM] | IC50 [5, 9] [nM] | IC50 [6, 9] [nM] | other results |
| --- | --- | --- | --- | --- | --- | --- | --- |
| Cc1cc(Cl)ccc1-n1ncc(C(=O)Nc2cnc(-n3nccn3)c(Cl)c2)c1C(F)(F)F [Cpd 2, 1-(4-Chloro-2-methylphenyl)-N-(5-chloro-6-(2H-1,2,3-triazol-2-yl)pyridin-3-yl)-5-(trifluoromethyl)-1H-pyrazole-4-carboxamide] | 741 | 148 | 65 | 132 |  |  |  |
| Cc1cccnc1-n1ncc(C(=O)Nc2cnc(-n3nccn3)c(Cl)c2)c1C(F)(F)F [Cpd 3, N-(5-Chloro-6-(2H-1,2,3-triazol-2-yl)pyridin-3-yl)-1-(3-methylpyridin-2-yl)-5-(trifluoromethyl)-1H-pyrazole-4-carboxamide] | 2460 |  | 832 | 282 |  |  |  |
| O=C(Nc1cnc(-n2nccn2)c(Cl)c1)c1cnn(-c2ccncc2)c1C(F)(F)F [Cpd 4, N-(5-Chloro-6-(2H-1,2,3-triazol-2-yl)pyridin-3-yl)-1-(pyridin-4-yl)-5-(trifluoromethyl)-1H-pyrazole-4-carboxamide] | 1050 |  | 933 | 282 |  |  |  |
| O=C(Nc1cnc(-n2nccn2)c(Cl)c1)c1cnn(-c2ccccc2)c1C(F)(F)F [Cpd 5, N-(5-Chloro-6-(2H-1,2,3-triazol-2-yl)pyridin-3-yl)-1-phenyl-5-(trifluoromethyl)-1H-pyrazole-4-carboxamide] | 380 | 263 | 741 | 295 |  |  |  |
| O=C(Nc1cnc(-n2nccn2)c(Cl)c1)c1cnn(-c2ccc(F)cn2)c1C(F)(F)F [Cpd 7, N-(5-Chloro-6-(2H-1,2,3-triazol-2-yl)pyridin-3-yl)-1-(5-fluoropyridin-2-yl)-5-(trifluoromethyl)-1H-pyrazole-4-carboxamide] |  |  |  | 912 |  |  | IC50 ([1]; OCI-Ly3, 96 h): 1550 nM; IC50 ([2]; TMD8, 24 h): 407 nM; IC50 ([3]; TMD8, 24 h): 417 nM |
| O=C(Nc1cnc(-n2nccn2)c(Cl)c1)c1cnn(-c2ccc(F)cc2)c1C(F)(F)F [Cpd 18, N-(5-chloro-6-(2H-1,2,3-triazol-2-yl)pyridin-3-yl)-1-(4-fluorophenyl)-5-(trifluoromethyl)-1H-pyrazole-4-carboxamide] |  |  |  | 151 |  |  | IC50 ([1]; OCI-Ly3, 96 h): 6460 nM; IC50 ([3]; TMD8, 24 h): 115 nM |
| N#Cc1ccc(-n2ncc(C(=O)Nc3cnc(-n4nccn4)c(Cl)c3)c2C(F)(F)F)cc1 [Cpd 19, N-(5-chloro-6-(2H-1,2,3-triazol-2-yl)pyridin-3-yl)-1-(4-cyanophenyl)-5-(trifluoromethyl)-1H-pyrazole-4-carboxamide] | 7940 |  | 117 | 132 |  |  |  |
| O=C(Nc1cnc(-n2nccn2)c(Cl)c1)c1cnn(-c2cccc(F)c2)c1C(F)(F)F [Cpd 20, N-(5-chloro-6-(2H-1,2,3-triazol-2-yl)pyridin-3-yl)-1-(3-fluorophenyl)-5-(trifluoromethyl)-1H-pyrazole-4-carboxamide] |  |  |  | 562 |  |  | IC50 ([1]; OCI-Ly3, 96 h): 12600 nM; IC50 ([3]; TMD8, 24 h): 1000 nM |
| N#Cc1cc(NC(=O)c2cnn(-c3ccccc3C3CC3)c2C(F)(F)F)cnc1-n1nccn1 [Cpd 100, N-(5-cyano-6-(2H-1,2,3-triazol-2-yl)pyridin-3-yl)-1-(2-cyclopropylphenyl)-5-(trifluoromethyl)-1H-pyrazole-4-carboxamide] | 269 |  |  | 170 | 129 | 93 |  |
| Cc1cccc(F)c1-n1ncc(C(=O)Nc2cnc(-n3nccn3)c(C#N)c2)c1C(F)(F)F [Cpd 101, N-(5-cyano-6-(2H-1,2,3-triazol-2-yl)pyridin-3-yl)-1-(2-fluoro-6-methylphenyl)-5-(trifluoromethyl)-1H-pyrazole-4-carboxamide] | 479 |  |  | 151 | 166 | 120 |  |
| Cc1ccc(F)cc1-n1ncc(C(=O)Nc2cnc(-n3nccn3)c(C#N)c2)c1C(F)(F)F [Cpd 103, N-(5-cyano-6-(2H-1,2,3-triazol-2-yl)pyridin-3-yl)-1-(5-fluoro-2-methylphenyl)-5-(trifluoromethyl)-1H-pyrazole-4-carboxamide] |  |  |  | 148 |  |  | IC50 ([1]; OCI-Ly3, 96 h): 275 nM; IC50 ([5]; OCI-Ly3, 24 h): 129 nM; IC50 ([6]; OCI-Ly3, 24 h): 141 nM |
| N#Cc1cc(NC(=O)c2cnn(-c3ccc(F)cc3F)c2C(F)(F)F)cnc1-n1nccn1 [Cpd 111, N-(5-cyano-6-(2H-1,2,3-triazol-2-yl)pyridin-3-yl)-1-(2,4-difluorophenyl)-5-(trifluoromethyl)-1H-pyrazole-4-carboxamide] | 1820 |  |  | 112 | 71 | 63 |  |
| N#Cc1cc(NC(=O)c2cnn(-c3nccc(N)c3Cl)c2C(F)(F)F)cnc1-n1nccn1 [Cpd 120, 1-(4-amino-3-chloropyridin-2-yl)-N-(5-cyano-6-(2H-1,2,3-triazol-2-yl)pyridin-3-yl)-5-(trifluoromethyl)-1H-pyrazole-4-carboxamide] |  | 1100 | 1350 | 126 | 741 | 794 |  |
| CN1CCc2c1cccc2-n1ncc(C(=O)Nc2cnc(-n3nccn3)c(C#N)c2)c1C(F)(F)F [Cpd 128, N-(5-cyano-6-(2H-1,2,3-triazol-2-yl)pyridin-3-yl)-1-(1-methylindolin-4-yl)-5-(trifluoromethyl)-1H-pyrazole-4-carboxamide] |  | 1020 | 2240 | 229 |  |  |  |
| N#Cc1cc(NC(=O)c2cnn(-c3cccc4c3CCN4)c2C(F)(F)F)cnc1-n1nccn1 [Cpd 130, N-(5-cyano-6-(2H-1,2,3-triazol-2-yl)pyridin-3-yl)-1-(indolin-4-yl)-5-(trifluoromethyl)-1H-pyrazole-4-carboxamide] |  | 437 | 245 | 234 |  |  |  |
| Cc1nc(-n2ncc(C(=O)Nc3cnc(-n4nccn4)c(C#N)c3)c2C(F)(F)F)ccc1F [Cpd 160, N-(5-cyano-6-(2H-1,2,3-triazol-2-yl)pyridin-3-yl)-1-(5-fluoro-6-methylpyridin-2-yl)-5-(trifluoromethyl)-1H-pyrazole-4-carboxamide] | 490 |  |  | 288 | 646 | 457 |  |
